Target: LCMV Z protein (Zabton-3 / Zabton FRET biosensor, trimeric tandem Z) (Lymphocytic choriomeningitis virus (strain Armstrong), UniProt P18541)
Sequence (P18541 whole entry, looked up): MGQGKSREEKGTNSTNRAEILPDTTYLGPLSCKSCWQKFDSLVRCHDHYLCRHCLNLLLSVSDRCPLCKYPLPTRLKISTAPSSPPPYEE

Nc1nc(N)c2c3c(sc2n1)CN(Cc1ccccc1)CC3 [#4, 5,6,7,8-tetrahydro-7-(benzyl)-pyrido[4',3':4,5]thieno[2,3-d]pyrimidin-2,4-diamine]
decrease of FRET/CFP emission ratio: both of them decreased the FRET ratio in a concentration-dependent manner

Reference: article PMC10511043 (Cell Structure and Function, 2020)
